Assay results reported in PubChem BioAssay (NCI).
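A five-concentration, 48-hour dose response in 96-well plates underlies each endpoint, interpolated linearly between surrounding concentrations. The concentration for full growth arrest is given as TGI.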

Legend:
Test in all cases: NCI-60 cell line screen, 48 h
OVCAR-5 ovarian = tested on: OVCAR-5 ovarian
NCI-H522 lung = tested on: NCI-H522 lung
LOX IMVI melanoma = tested on: LOX IMVI melanoma
HL-60(TB) leukemia = tested on: HL-60(TB) leukemia
CCRF-CEM leukemia = tested on: CCRF-CEM leukemia
DLD-1 colon = tested on: DLD-1 colon
OVCAR-4 ovarian = tested on: OVCAR-4 ovarian
DMS 273 small cell lung = tested on: DMS 273 small cell lung
SNB-75 CNS = tested on: SNB-75 CNS
786-0 renal = tested on: 786-0 renal
SK-OV-3 ovarian = tested on: SK-OV-3 ovarian
KM20L2 colon = tested on: KM20L2 colon

Compound	TGI (OVCAR-5 ovarian) [µM]	TGI (NCI-H522 lung) [µM]	TGI (LOX IMVI melanoma) [µM]	TGI (HL-60(TB) leukemia) [µM]	TGI (CCRF-CEM leukemia) [µM]	TGI (DLD-1 colon) [µM]	TGI (OVCAR-4 ovarian) [µM]	TGI (DMS 273 small cell lung) [µM]	TGI (SNB-75 CNS) [µM]	TGI (786-0 renal) [µM]	TGI (SK-OV-3 ovarian) [µM]	TGI (KM20L2 colon) [µM]
CCN(CC)CC(=O)Nc1ccc2c(c1)C(=O)c1ccc(NC(=O)CN(CC)CC)cc1C2=O	> 100	43.2	34.5	44.5	> 100	> 100	> 100	> 100	89.6	47.2	88	> 100
COc1cc2cc3c4c(cc(OC)c(OC)c4c2cc1OC)CCN3C(=O)CCC(=O)O	> 100	> 100	> 100	> 100	> 100	> 100	> 100	> 100		> 100	> 100	> 100
NC(=O)CNC(=O)[C@@H]1C[C@@H](OCCC(=O)O)CN1C(=O)OCc1ccccc1	> 100	> 100	> 100	> 100	> 100		> 100		> 100	> 100	> 100	
O[C@H]1[C@H](O)[C@@H](Cn2nnc(-c3ccccc3)c2-c2ccccc2)OCO[C@@H]1Cn1nnc(-c2ccccc2)c1-c1ccccc1	6.49	21.5	5.85	> 24	> 34.5		26.9		28.9	7.39	27.2	
CC(=O)OC(=C(C#N)C#N)c1nccnc1C(C)=O	> 20	> 20	> 20	> 20	> 20		> 20		18.6	> 20	> 20	
Cc1cc(C)c2c(=O)cc(-c3ccc4ccccc4c3)[nH]c2n1	> 100	72.5	> 74.9	16.4	37.7		> 100		> 90.7	> 100	> 100	
C[N+](C)(C)C(C1=CCCC1=O)c1ccccc1 (stereo not given)	> 100	35	38.3	66.5	> 100		> 100		> 100	39.9	> 100	
Cc1ccc([N+](=O)[O-])cc1S(=O)(=O)Nc1ccc(C2=NN(S(=O)(=O)c3cc([N+](=O)[O-])ccc3C)C(c3ccco3)C2)cc1 (stereo not given)	> 100	> 100	> 100	98.2	> 100		> 100		> 100	> 100	> 100	
C=CCn1c(-c2ccc(Cl)cc2Cl)csc1=Nc1c(C)n(C)n(-c2ccccc2)c1=O	31.1	29.6	23.9	25.8	38.1		28.3		24.5	26.7	19.4	
CC(=O)C1=C(C)N(c2ccccc2)C2(O)C=CC(=O)C3=C(O)c4ccccc4C(=O)C312 (stereo not given)	39.3	36.4	83	74.1	> 100		72.1		> 100	> 100	> 100	
Cc1nc2cccc([N+](=O)[O-])c2n1CCCN(C)C	> 100	> 100	> 100	> 100	> 100		> 100		> 100	> 100	> 100	
NC(N)=NS(=O)(=O)c1ccc(NC(=O)c2ccc3nc4ccccc4c(N)c3c2)cc1	> 100	> 100	> 100	> 100	> 100		> 100		> 100	> 100	> 100	
COc1cc(Nc2nc3ccccc3nc2C(C)C)cc(OC)c1OC	> 100	> 100	> 100	> 100	> 100		> 100		> 100	> 100	> 100	
Cc1cccc(C(=O)O)c1CC1NCCC2c3ccccc3NC12 (stereo not given)	> 100	> 100	> 100	> 100	> 100		> 100		> 100	> 100	> 100	
COc1ccc(N(C(=O)NCCO)c2ccccc2)cc1	> 100	> 100	> 100	> 100	> 100		> 100		> 100	> 100	> 100	
Cc1ccc(C)c(COCCOCn2c(=O)[nH]c(=O)c3cc(Br)ccc32)c1	> 100	> 100	> 100	> 100	> 100		> 100		> 100	> 100	> 100	
Cc1nnc([C@@]2(C)CC[C@H]3[C@@H](CCC4=CC(=O)CC[C@@]43C)[C@@H]2CC#N)o1	> 100	> 100	> 100	> 100	> 100		> 100		> 100	> 100	> 100	

Compound	TGI (OVCAR-5 ovarian) [µM]	TGI (NCI-H522 lung) [µM]	TGI (LOX IMVI melanoma) [µM]	TGI (HL-60(TB) leukemia) [µM]	TGI (CCRF-CEM leukemia) [µM]	TGI (DLD-1 colon) [µM]	TGI (OVCAR-4 ovarian) [µM]	TGI (DMS 273 small cell lung) [µM]	TGI (SNB-75 CNS) [µM]	TGI (786-0 renal) [µM]	TGI (SK-OV-3 ovarian) [µM]	TGI (KM20L2 colon) [µM]
CCCCS(=O)CC(CO)NC(=O)/C=C/c1c(C)[nH]c(=O)[nH]c1=O (stereo not given)	89.8	21.4	40.9	21.5	51	72.1	26.4	52.7	30		65.3	56.8
CCN(CC)CCNC(=O)c1nn(-c2ccc(Cl)cc2)c2c1CCc1cc(OC)ccc1-2	15	11	4.11	14.5	20.1	14.2	21.9	5.98	14.5	12	27.5	3.32
Nc1ccc(OCCCc2c(-c3ccccc3)nc(N)[nH]c2=O)cc1	> 100	> 100	> 100	> 100	> 100		> 100		> 100	> 100	> 100	
CC(=O)OC1OC(c2ccoc2)C[C@@]12C1CCC3O[C@]3(C)[C@]1(C)C[C@H](OC(C)=O)[C@H]2C (stereo not given in full)	> 75	> 75	> 75	> 75	> 75		> 75		> 75	> 75	> 75	
CC#CCCCC1(C)CCCNC1=S (stereo not given)	> 10	> 10	> 10	> 10	> 10		> 10		> 10	> 10	> 10	
O=[p+]1c2ccccc2[nH]c2ccccc21	> 100	> 100	> 100	> 100	> 100		> 100		> 100	> 100	> 100	
O=C1Nc2ccccc2/C1=C\c1c(Cl)nc2n1CCS2	> 100	40.5	> 100	48.8	> 100		> 100		56.8	60.6	74.9	
CNc1nc2c(C)ccc3[nH]c(N(C)C)nc3c-2n1	> 100	> 100	> 100	69.5	> 100		80.9		> 100	> 100	> 100	
Cc1cc(=O)c2ccccc2n1CCCCCCCCCCn1c(C)cc(=O)c2ccccc21	> 100	32.9	17.8	15.1	26.7		44.1		87	30.4	35.3	
NC(=O)C1CCCN1C(=O)N(CCCl)N=O (stereo not given)	> 100	> 100	> 100	> 100	> 100		> 100		72.8	> 100	> 100	
COCn1c(C)c(C)c2c(=O)oc(C)nc21	> 100	> 100	> 100	> 100	> 100		> 100		> 100	> 100	> 100	
CCCCc1c2c(nc3c1CC/C(=C\c1ccc([N+](=O)[O-])cc1)C3=O)CCCC2		2.84	3.05		6.68	3.42		3.78	20.6	2.77	3.91	4.01
O=c1c2c3c(sc2nc2n1N=C(c1ccc([N+](=O)[O-])cc1)CS2)CCCC3	> 100	> 100	> 100	> 100	> 100		> 100		> 100	> 100	> 100	
N=C(N)SCc1ccc(N=C=S)cc1	27.6	21.6	28	35.9	> 100		27.4		21.9	26.7	31.1	
COc1ccc(-c2nc3c(nc2-c2ccc(OC)cc2)N(C)S(=O)(=O)N=C3N)cc1	94.6	36	29.9	43.7	> 100	> 100	79.2	> 100	> 100	50.1	88.8	> 100
NC(=S)N/N=C1\CCCCC1C(O)(C(F)(F)Cl)C(F)(F)Cl (stereo not given)	> 10	> 10	> 10	> 10	> 10		> 10		> 10	> 10	> 10	
